Measurements from patent US10694746B2, “Fungicidal composition” (JIANGSU HUIFENG BIO AGRICULTURE CO., LTD., priority 2016, dated 2020).
Values after ≈ are worked out from the molar mass of the structure shown.

Columns and labels:
Format in all cases: in vivo
apple anthracnose = assay: Toxicity test of BBIT combined with mancozeb on apple anthracnose (bioassay); conditions: for ATI (actual toxicity index): (EC50 of standard/EC50 of test agent)*100, standard BBIT; for EC50: apple anthracnose
cucumber downy mildew = assay: Toxicity test of BIT combined with mancozeb on cucumber downy mildew (bioassay); conditions: for ATI (actual toxicity index): (EC50 of standard/EC50 of test agent)*100, standard BIT; for EC50: cucumber downy mildew
potato late blight = conditions: for ATI (actual toxicity index): (EC50 of standard/EC50 of test agent)*100, standard MBIT; for EC50: potato late blight

In the case of `CCCCn1sc2ccccc2c1=O` [BBIT, 2-n-butyl-1,2-benzisothiazolin-3-one], the “ATI (actual toxicity index)” value (apple anthracnose) was 100 and the EC50 (apple anthracnose) was 19.09 µg/mL.
For `O=c1[nH]sc2ccccc12` [BIT, 1,2-benzisothiazolin-3-one], the “ATI (actual toxicity index)” value (cucumber downy mildew) was 100.00 and the EC50 (cucumber downy mildew) was 13.5 µg/mL.
With `Cn1sc2ccccc2c1=O` [MBIT, 2-methyl-1,2-benzisothiazolin-3-one] the “ATI (actual toxicity index)” value (potato late blight) was 100.00 and the EC50 (potato late blight) was 14.81 µg/mL (≈ 89.6 µM).
mancozeb was tested, and the “ATI (actual toxicity index)” value (potato late blight) was 21.69, the EC50 (potato late blight) was 68.27 µg/mL and the “ATI (actual toxicity index)” value (apple anthracnose) was 20.67. For the same compound, the EC50 (apple anthracnose) was 92.36 µg/mL, the “ATI (actual toxicity index)” value (cucumber downy mildew) was 17.96 and the EC50 (cucumber downy mildew) was 75.17 µg/mL.
